The results in this text go back to PMC11336974 (2024).

In the experiment the test system is miR-193a-3p (RNA, miRNA) AACUGGCCUACAAAGUCCCAGU
The experiment can be described thus: single-strand gel shift. The conditions noted are these: 37 °C 30 min, 200 µM Trp; 15% native PAGE, 0.5x TBE. For orientation: A gel shift assay detects complexes by their altered migration in electrophoresis.

As to `N[C@@H](Cc1c[nH]c2ccccc12)C(=O)O`, the binding result is “yes”.
